≈ marks a conversion by molar mass, not a printed value. Bounds are passed on as bounds.

Type in all cases: cell-based
The test system of assay [1] is Haemophilus influenzae Holt. The assay can be described thus: standard agar-dilution assay (MIC). The settings on record: ampicillin-sensitive strain, unit assumed. The method, then:
(§1) The MIC's in Table II were determined by standard agar-dilution assays. The MIC's in Table III were obtained using a conventional broth-dilution microtiter test.

Assay [2] has as its system Streptococcus pyogenes C203. The assay can be described thus: standard agar-dilution assay (MIC). Particulars: unit assumed. The method, then:
as §1

Assay [3] has as its system Staphylococcus aureus X1.1. Briefly: standard agar-dilution assay (MIC). Particulars: unit assumed. The method, then: as §1
Assay [4] has as its system Streptococcus Group 9960. The assay can be described thus: standard agar-dilution assay (MIC). Particulars: unit assumed. The method, then: as §1
The test system of assay [5] is Haemophilus influenzae R252. The assay can be described thus: standard agar-dilution assay (MIC). The settings on record: Haemophilus influenzae R252, ampicillin-resistant strain, unit assumed. The method, then:
as §1

Assay [6] has as its system Staphylococcus epidermidis EPI1. The assay can be described thus: standard agar-dilution assay (MIC). The settings on record: unit assumed. The method, then:
as §1

The test system of assay [7] is Staphylococcus epidermidis EPI2. Briefly: standard agar-dilution assay (MIC). Particulars: unit assumed. The method, then:
as §1

The test system of assay [8] is Streptococcus Group D X66. Briefly: standard agar-dilution assay (MIC). The settings on record: unit assumed. The method, then: as §1
For assay [9], the system named is Staphylococcus aureus S13E. Briefly: standard agar-dilution assay (MIC). Particulars: unit assumed. The method, then:
as §1

The test system of assay [10] is Streptococcus pneumoniae Park I. The settings on record: agar dilution, unit assumed. The method, then:
as §1

Assay [11] deals with Mycoplasma gallisepticum. The assay can be described thus: conventional broth-dilution microtiter test (MIC). The settings on record: unit assumed. The method, then:
as §1

Assay [12] deals with Mycoplasma hyorhinis. Briefly: conventional broth-dilution microtiter test (MIC). Particulars: unit assumed. The method, then:
as §1

Assay [13] has as its system Streptococcus sp. 80. The assay can be described thus: conventional broth-dilution microtiter test (MIC). Particulars: unit assumed. The method, then: as §1
Assay [14] relates to Pasteurella multocida 60A. Briefly: conventional broth-dilution microtiter test (MIC). The settings on record: avian isolate, unit assumed. The method, then: as §1
Assay [15] has as its system Pasteurella multocida 17E. Briefly: conventional broth-dilution microtiter test (MIC). The settings on record: bovine isolate, unit assumed. The method, then: as §1
For assay [16], the system named is Staphylococcus aureus. The assay can be described thus: conventional broth-dilution microtiter test (MIC). The settings on record: unit assumed. The method, then: as §1
Assay [17] has as its system Staphylococcus aureus V41. Briefly: standard agar-dilution assay (MIC). Particulars: Staphylococcus aureus V41, penicillin-resistant strain, unit assumed. The method, then:
as §1
^b Penicillinresistant strain

Assay [18] relates to Staphylococcus aureus X400. Briefly: standard agar-dilution assay (MIC). Particulars: Staphylococcus aureus X400, methicillin-resistant strain, unit assumed. The method, then:
as §1
^c Methicillinresistant-strain

The test system of assay [19] is Mycoplasma synoviae. Briefly: conventional broth-dilution microtiter test (MIC). The settings on record: unit assumed. The method, then:
as §1

On to `CCC1OC(=O)CC(O)C(C)C(OC2OC(C)C(OC3CC(C)(O)C(O)C(C)O3)C(N(C)C)C2OC(C)=O)C(CC=O)CC(C)C(=O)C=CC(C)=CC1COC(=O)Cc1ccccc1` (centres unmarked) [Compound 9, 2'-O-Acetyl-23-O-phenylacetyl-DMT], for which the MIC worked out at 4 mg/L (≈ 4.43 µM) in [1]; 0.125 mg/L (≈ 0.139 µM) in [2]; 0.5 mg/L (≈ 0.554 µM) in assay [3]; 0.25 mg/L (≈ 0.277 µM) in assay [4]; 4 mg/L (≈ 4.43 µM) in [5]; 0.5 mg/L (≈ 0.554 µM) in [6]. The MIC was 0.5 mg/L (≈ 0.554 µM) in assay [7]; 0.5 mg/L (≈ 0.554 µM) in assay [8]; 0.5 mg/L (≈ 0.554 µM) in assay [9]; 0.015 mg/L (≈ 0.0166 µM) in assay [10]; not above 0.048 mg/L in assay [11]; 0.78 mg/L (≈ 0.865 µM) in assay [12]. Also, the MIC was not above 0.048 mg/L in [13]; 6.25 mg/L (≈ 6.93 µM) in assay [14]; 3.12 mg/L (≈ 3.46 µM) in assay [15]; 0.195 mg/L (≈ 0.216 µM) in [16]; 0.5 mg/L (≈ 0.554 µM) in [17]; 0.5 mg/L (≈ 0.554 µM) in assay [18].
Regarding `CCCCCCCC(=O)OCC1C=C(C)C=CC(=O)C(C)CC(CC=O)C(OC2OC(C)C(OC3CC(C)(O)C(O)C(C)O3)C(N(C)C)C2OC(C)=O)C(C)C(O)CC(=O)OC1CC` (centres unmarked) [Compound 7], the MIC in [2] amounted to 0.5 mg/L (≈ 0.549 µM); in assay [3] it was 2 mg/L (≈ 2.2 µM); in assay [4] it was 2 mg/L (≈ 2.2 µM); in assay [6], 2 mg/L (≈ 2.2 µM); in assay [7], 4 mg/L (≈ 4.39 µM); in [8] it was 2 mg/L (≈ 2.2 µM). Moreover, the MIC in assay [9] was 2 mg/L (≈ 2.2 µM); in [10], 0.5 mg/L (≈ 0.549 µM); in [11], 1.56 mg/L (≈ 1.71 µM); in assay [12], 6.25 mg/L (≈ 6.87 µM); in assay [13], 1.56 mg/L (≈ 1.71 µM); in [14] it was more than 50 mg/L. Also, the MIC in [19] is 12.5 mg/L (≈ 13.7 µM); in assay [15], more than 50 mg/L; in assay [16] it was 1.56 mg/L (≈ 1.71 µM); in assay [17] it was 2 mg/L (≈ 2.2 µM); in [18], 4 mg/L (≈ 4.39 µM).
As for `CCC1OC(=O)CC(O)C(C)C(OC2OC(C)C(OC3CC(C)(O)C(O)C(C)O3)C(N(C)C)C2OC(C)=O)C(CC=O)CC(C)C(=O)C=CC(C)=CC1COC(=O)Cc1ccc([N+](=O)[O-])cc1` (centres unmarked) [Compound 15, 2'-O-Acetyl-23-O-(p-nitrophenylacetyl)-DMT], the MIC in [1] worked out at 8 mg/L (≈ 8.45 µM); in assay [2] it was 0.125 mg/L (≈ 0.132 µM); in assay [3], 0.25 mg/L (≈ 0.264 µM); in assay [4], 0.25 mg/L (≈ 0.264 µM); in [5], 4 mg/L (≈ 4.22 µM); in assay [6], 0.5 mg/L (≈ 0.528 µM). Further, the MIC is 0.5 mg/L (≈ 0.528 µM) in assay [7]; 0.25 mg/L (≈ 0.264 µM) in assay [8]; 0.25 mg/L (≈ 0.264 µM) in assay [9]; 0.39 mg/L (≈ 0.412 µM) in assay [11]; 0.78 mg/L (≈ 0.824 µM) in assay [12]; 0.39 mg/L (≈ 0.412 µM) in assay [13]. Further, the MIC in assay [14] is 6.25 mg/L (≈ 6.6 µM); in assay [19], less than 0.05 mg/L; in [15], 3.12 mg/L (≈ 3.29 µM); in assay [16], 1.56 mg/L (≈ 1.65 µM); in [17], 0.5 mg/L (≈ 0.528 µM); in assay [18], 0.5 mg/L (≈ 0.528 µM).
As to `CCC1OC(=O)CC(O)C(C)C(OC2OC(C)C(OC3CC(C)(O)C(O)C(C)O3)C(N(C)C)C2OC(C)=O)C(CC=O)CC(C)C(=O)C=CC(C)=CC1COC(=O)COc1ccccc1` (centres unmarked) [Compound 12, 2'-O-Acetyl-23-O-phenoxyacetyl-DMT], the MIC in [1] came to 16 mg/L (≈ 17.4 µM); in assay [2] it was 0.125 mg/L (≈ 0.136 µM); in assay [3], 0.25 mg/L (≈ 0.272 µM); in [4], 0.5 mg/L (≈ 0.545 µM); in [5] it was 8 mg/L (≈ 8.71 µM); in assay [6], 0.5 mg/L (≈ 0.545 µM). Besides, the MIC in assay [7] was found to be 0.5 mg/L (≈ 0.545 µM); in assay [8], 0.5 mg/L (≈ 0.545 µM); in [9], 0.5 mg/L (≈ 0.545 µM); in [11] it was 0.097 mg/L (≈ 0.106 µM); in assay [12], 6.25 mg/L (≈ 6.81 µM); in assay [13], 0.195 mg/L (≈ 0.212 µM). The MIC in assay [14] is 6.25 mg/L (≈ 6.81 µM); in assay [19], 0.78 mg/L (≈ 0.85 µM); in [15], 6.25 mg/L (≈ 6.81 µM); in assay [16] it was 0.39 mg/L (≈ 0.425 µM); in [17], 0.25 mg/L (≈ 0.272 µM); in assay [18], 0.5 mg/L (≈ 0.545 µM).
Consider `CCC1OC(=O)CC(O)C(C)C(OC2OC(C)C(OC3CC(C)(O)C(O)C(C)O3)C(N(C)C)C2O)C(CC=O)CC(C)C(=O)C=CC(C)=CC1COC(=O)n1ccnc1` (centres unmarked) [Compound 22], for which the MIC in [1] is 16 mg/L (≈ 19.1 µM); in assay [2], 0.25 mg/L (≈ 0.299 µM); in assay [3], 0.5 mg/L (≈ 0.598 µM); in assay [4] it was 0.5 mg/L (≈ 0.598 µM); in assay [5], 8 mg/L (≈ 9.57 µM); in [6] it was 0.5 mg/L (≈ 0.598 µM). Also, the MIC in assay [7] was determined as 0.5 mg/L (≈ 0.598 µM); in [8], 1 mg/L (≈ 1.2 µM); in assay [9], 0.5 mg/L (≈ 0.598 µM); in assay [11] it was 3.12 mg/L (≈ 3.73 µM); in assay [12], 1.56 mg/L (≈ 1.87 µM); in assay [13] it was 1.56 mg/L (≈ 1.87 µM). The MIC in [14] is 25 mg/L (≈ 29.9 µM); in assay [19], 1.56 mg/L (≈ 1.87 µM); in assay [15] it was 12.5 mg/L (≈ 15 µM); in assay [16], 6.25 mg/L (≈ 7.48 µM); in assay [17], 1 mg/L (≈ 1.2 µM); in assay [18] it was 1 mg/L (≈ 1.2 µM).

The record behind these values is US4396613A, “23-Ester derivatives of DMT and method of using same” (Eli Lilly and Company, priority 1981, dated 1983).
